Measurements published in US20130096310A1, “ISOQUINOLINE DERIVATIVE” (TAISHO PHARMACEUTICAL CO., LTD., priority 2010, published 2013).

Biological target: T1, CRTH2 (Homo sapiens, UniProt Q9Y5Y4)
T1 construct: expressed in transfected cells; host or cells: KB8 cells (human)
T1 sequence (Q9Y5Y4 1-395): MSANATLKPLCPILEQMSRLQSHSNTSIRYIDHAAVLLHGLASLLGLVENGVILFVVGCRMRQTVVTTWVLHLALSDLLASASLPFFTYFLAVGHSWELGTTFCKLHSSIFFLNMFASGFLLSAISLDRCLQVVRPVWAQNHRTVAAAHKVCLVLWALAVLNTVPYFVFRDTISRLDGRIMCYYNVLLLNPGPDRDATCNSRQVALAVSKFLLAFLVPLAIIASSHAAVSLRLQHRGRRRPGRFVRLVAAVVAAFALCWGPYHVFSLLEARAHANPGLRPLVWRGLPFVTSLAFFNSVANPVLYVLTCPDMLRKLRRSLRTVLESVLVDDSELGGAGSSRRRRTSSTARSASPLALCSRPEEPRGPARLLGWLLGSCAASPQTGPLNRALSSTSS
Assay: CRTH2 antagonist test: inhibition of PGD2-induced intracellular calcium ion concentration increase in KB8 cells
Type: cell-based
Details: KB8 cells (human cells expressing CRTH2); PGD2 final concentration 100 nM; Fluo-4-AM, FDSS6000
Description: The antagonist activity of the compound of the present invention was considered by using the intracellular calcium ion concentration increase reaction induced when the prostaglandin D2 was added to KB8 cells, which are human cells on which CRTH2 is expressed.
Fluo-4-AM (SIGMA, final concentration: 1 μM) was added to KB8 cells, and the cells were incubated at 37° C. for 30 minutes, washed with phosphate buffer (Invitrogen), and then suspended in Hank's balanced salt solution (Invitrogen) containing a reaction buffer solution (10 mM HEPES (Invitrogen), and 1 mM calcium chloride (SIGMA)). The suspension was dispensed in a 96 well plate (Nunc) so that 2×10^5 cells/well were placed, and the compound of the present invention and PGD2 (final concentration: 100 nM) were added. The fluorescence intensity thereof was measured over time by using FDSS6000 (Hamamatsu Photonics), and thus the maximum fluorescence intensity value “d” was obtained. The same procedure was carried out in the absence of the compound, and the maximum fluorescence intensity value “e” was obtained; and the same procedure was carried out in the absence of the compound and in […], and the maximum fluorescence intensity value “f” was obtained.
The calcium ion concentration increase inhibition rate of a compound was calculated by the following calculation equation:
Inhibitory rate(%)=[1−(d−f)/(e−f)]×100
That is to say, by using calcium ion concentration increase inhibitory rates of compounds to be tested having various concentrations, the IC50 value was calculated according to a dose-dependent inhibition curve analyzed by using XLfit (IDBS) as a data analysis software, and the value was defined as an indicator of the antagonist activity.

| SMILES | IC50 |
| --- | --- |
| O=C(O)Cc1cnc(C(F)(F)c2ccc(C(=O)NCCc3ccc(Cl)cc3)cc2)c2ccccc12 [Example 2, {1-[(4-{[2-(4-chlorophenyl)ethyl]carbamoyl}phenyl)(difluoro)methyl]isoquinolin-4-yl}acetic acid] | 36 nM |
| COc1cc(Cc2ncc(CC(=O)O)c3ccccc23)ccc1C(=O)NCCc1ccc(Cl)cc1 [Example 3, [1-(4-{[2-(4-chlorophenyl)ethyl]carbamoyl}-3-methoxybenzyl)isoquinolin-4-yl]acetic acid] | 17 nM |
| Cc1cc(Cc2ncc(CC(=O)O)c3ccccc23)ccc1C(=O)NCCc1ccc(Cl)cc1 [Example 5, [1-(4-{[2-(4-chlorophenyl)ethyl]carbamoyl}-3-methylbenzyl)isoquinolin-4-yl]acetic acid] | 42 nM |

These reach a lower IC50. Values come first.

| IC50 | SMILES |
| --- | --- |
| 4.4 nM | CC(c1ccc(C(=O)NCCc2ccc(Cl)cc2)cc1)c1ncc(CC(=O)O)c2ccccc12 (stereo not shown) [Example 1, {1-[1-(4-{[2-(4-chlorophenyl)ethyl]carbamoyl}phenyl)ethyl]isoquinolin-4-yl}acetic acid] |
| 15 nM | O=C(O)Cc1cnc(Cc2ccc(C(=O)NCCc3ccc(Cl)cc3)cc2F)c2ccccc12 [Example 4, [1-(4-{[2-(4-chlorophenyl)ethyl]carbamoyl}-2-fluorobenzyl)isoquinolin-4-yl]acetic acid] |
| 8.7 nM | O=C(O)Cc1cnc(Cc2ccc(C(=O)NCCc3ccc(Cl)cc3)c(F)c2)c2ccccc12 [Example 6, [1-(4-{[2-(4-chlorophenyl)ethyl]carbamoyl}-3-fluorobenzyl)isoquinolin-4-yl]acetic acid] |
| 14 nM | O=C(O)Cc1cnc(Cc2ccc(C(=O)NCCc3ccc(Cl)cc3)c(C(F)(F)F)c2)c2ccccc12 [Example 7, {1-[4-{[2-(4-chlorophenyl)ethyl]carbamoyl}-3-(trifluoromethyl)benzyl]isoquinolin-4-yl}acetic acid] |
